Measurements from patent US5486526A, “Histamine H3 -receptor antagonists and therapeutic uses thereof” (The University of Toledo, priority 1993, dated 1996).
Read-outs that look alike come from different tables or passages of the source. Ends that are not written are not given here.

Legend:
histamine H3 receptor = molecular target: T1, histamine H3 receptor (Rattus norvegicus, UniProt Q9QYN8); assay: Inhibition of [^3 H]-N-alpha-methylhistamine binding to rat brain membranes; conditions: for binding to the histamine H3 -receptor (in words): discussion of Table I
T1 construct: from tissue
Method: A series of compounds were prepared and tested for their histamine H3 receptor antagonist activity. The antagonist activity of the compounds was detected by observing inhibition of (^3 H)-N-(alpha)methylhistamine activity on rat brain membranes.
The various compounds were tested for the ability to bind to the histamine H3 receptor. A binding assay in a rat brain membrane preparation, based on inhibition of binding of [^3 H]-N-alpha-methylhistamine using excess unlabeled alpha-methylhistamine to account for nonspecific binding, was developed.

Calcium = conditions: reference compound; cited from earlier work
Quisqualate = conditions: reference compound; cited from earlier work
Arg-Vasopressin V1 = conditions: reference compound; cited from earlier work
NGF = conditions: reference compound; cited from earlier work
ANF (rat) = conditions: reference compound; cited from earlier work
EGF = conditions: reference compound; cited from earlier work
NPY = conditions: reference compound; cited from earlier work
Neurotensin = conditions: reference compound; cited from earlier work
Potassium = conditions: reference compound; cited from earlier work
Somatostatin = conditions: reference compound; cited from earlier work
Male albino CF-1 mice = assay: Behavioral effects in mice: sleep induced by (R)α-methylhistamine; type: in vivo, mouse; conditions: i.p.
Method: The overall strategy to show central nervous system antagonist activity was to challenge effects of the agonist (R)α-methylhistamine. Therefore, the first objective was to establish a dose response curve for behavioral effects of (R)α-methylhistamine. Male albino CF-1 mice weighing 20-30 g were used. Saline or (R)α-methylhistamine in saline was injected i.p. in a volume ≤0.4 ml. […] Animals were scored for the presence (1) or absence (0) of the behavior and the results were reported as the accumulated score for a 30 minute period (maximum score=9).
To assess the effects of antagonists, they were administered with the (R)α-methylhistamine in saline.

Substance P = conditions: reference compound; cited from earlier work
Dopamine 2 = conditions: reference compound; cited from earlier work
Substance K = conditions: reference compound; cited from earlier work
[1] = molecular target: Adenylate Cyclase Forskolin; conditions: reference compound; cited from earlier work
Angiotensin = conditions: reference compound; cited from earlier work
Adenosine = conditions: reference compound; cited from earlier work
VIP = conditions: reference compound; cited from earlier work
NMDA = conditions: reference compound; cited from earlier work
Serotonin 1 = conditions: reference compound; cited from earlier work
Serotonin 2 = conditions: reference compound; cited from earlier work
Benzodiazephine = conditions: reference compound; cited from earlier work
Bombesin = conditions: reference compound; cited from earlier work
PCP = conditions: reference compound; cited from earlier work
MK-801 = conditions: reference compound; cited from earlier work
[2] = ^3 HN^α -methylhistamine as radioligand, rat brain membranes, first part of Table I, read-out: IC50
[3] = ^3 HN^α -methylhistamine as radioligand, rat brain membranes, second part of Table I, read-out: IC50

T1 sequence (Q9QYN8 whole entry): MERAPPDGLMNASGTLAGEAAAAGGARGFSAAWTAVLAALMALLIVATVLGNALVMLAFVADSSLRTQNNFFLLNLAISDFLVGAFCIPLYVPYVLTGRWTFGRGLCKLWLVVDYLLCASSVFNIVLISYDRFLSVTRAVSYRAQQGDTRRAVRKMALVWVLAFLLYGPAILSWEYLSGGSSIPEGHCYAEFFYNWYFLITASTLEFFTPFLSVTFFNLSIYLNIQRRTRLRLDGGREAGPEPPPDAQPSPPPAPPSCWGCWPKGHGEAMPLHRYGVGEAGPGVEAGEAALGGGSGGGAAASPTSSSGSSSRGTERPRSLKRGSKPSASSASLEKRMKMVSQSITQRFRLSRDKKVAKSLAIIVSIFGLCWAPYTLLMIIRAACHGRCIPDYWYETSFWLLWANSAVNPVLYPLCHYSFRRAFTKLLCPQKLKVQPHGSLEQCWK

O=C(CCCC1CCCCC1)N1CCC(c2c[nH]cn2)CC1 [Compound 12]
IC50 (histamine H3 receptor; [2]): 41.4 ± 9 nM

COC(=O)C1=C(C)NC(C)=C(C(=O)OC)C1c1ccccc1[N+](=O)[O-] [Nifedipine]
Ki (Calcium): 1.6 nM

N[C@@H](Cn1oc(=O)[nH]c1=O)C(=O)O [Quisqualic Acid]
Ki (Quisqualate): 11.8 nM

O=C(/C=C/c1ccccc1)N1CCC(c2c[nH]cn2)CC1 [Compound 10]
IC50 (histamine H3 receptor; [3]): 570 ± 172 nM

N#CN=C(NC1CCCCC1)N1CCC(c2c[nH]cn2)CC1 [Compound 48]
binding to the histamine H3 -receptor (in words) (histamine H3 receptor): ineffective at binding to the H3 -receptor

arg-Vasopressin: Reference Compound
Ki (Arg-Vasopressin V1): 4.9 nM

NGF: Reference Compound
Ki (NGF): 0.8 nM

ANP: Reference Compound
Ki (ANF (rat)): 0.15 nM

CNCCc1c[nH]cn1 [[^3 H]-N-alpha-methylhistamine, reference compound]
Kd (histamine H3 receptor): 0.19 nM

O=C(C(c1ccccc1)C1CCCCC1)N1CCC(c2c[nH]cn2)CC1 (centres unmarked) [Compound 11]
IC50 (histamine H3 receptor; [3]): 260 ± 38 nM

EGF: Reference Compound
Ki (EGF): 0.24 nM

Neuropeptide Y: Reference Compound
Ki (NPY): 0.5 nM

Neurotensin
Ki (Neurotensin): 1.23 nM

Apamin: Reference Compound (CNCKAPETALCARRCQQH; ends and bridges not checked; cysteine pairing not given here; UniProt P01500 28-45, looked up)
Ki (Potassium): 0.05 nM

N#CN=C(Oc1ccccc1)N1CCC(c2c[nH]cn2)CC1 [Compound 47]
IC50 (histamine H3 receptor; [2]): 231 nM
binding to the histamine H3 -receptor (in words) (histamine H3 receptor): ineffective at binding to the H3 -receptor

O=C(CC(c1ccccc1)c1ccccc1)N1CCC(c2c[nH]cn2)CC1 [Compound 52]
IC50 (histamine H3 receptor; [2]): 93.1 nM

O=C(CCc1ccccc1)N1CCC(c2c[nH]cn2)CC1 [Compound 7]
IC50 (histamine H3 receptor; [2]): 34.1 ± 3.6 nM

O=C(CC=C(c1ccccc1)c1ccccc1)N1CCC(c2c[nH]cn2)CC1 [Compound 54]
IC50 (histamine H3 receptor; [2]): 1000 nM

Somatostatin: Reference Compound
Ki (Somatostatin): 0.03 nM

CNC(=S)NCCCCc1cnc[nH]1 [Burimamide, reference compound]
IC50 (histamine H3 receptor; [2]): 156 ± 57 nM

C[C@@H](N)Cc1c[nH]cn1 [(R)α-methylhistamine]
sleeping (Male albino CF-1 mice; 15 to 35 mg/kg, one hour after injection): dose-dependent (range of 15 to 35 mg/kg) increase in sleeping one hour after injection
sleeping (Male albino CF-1 mice; 30 minutes after injection): evident at 30 minutes after injection

O=C(CC1CCCCC1)N1CCC(c2c[nH]cn2)CC1 [Compound 3]
IC50 (histamine H3 receptor): 19 ± 12 nM

Substance P: Reference Compound
Ki (Substance P): 0.08 nM

O=C(CCC(c1ccccc1)c1ccccc1)N1CCC(c2c[nH]cn2)CC1 [Compound 53]
IC50 (histamine H3 receptor; [2]): 124 nM

O=C(CCCN1CCC2(CC1)C(=O)NCN2c1ccccc1)c1ccc(F)cc1 [Spiperone]
Ki (Dopamine 2): 0.08 nM

Neurokinin A: Reference Compound
Ki (Substance K): 2.75 nM

C=C[C@@]1(C)CC(=O)[C@]2(O)[C@@]3(C)[C@@H](O)CCC(C)(C)[C@@H]3[C@H](O)[C@H](OC(C)=O)[C@@]2(C)O1 [Forskolin]
Ki [1]: 29.4 nM

Angiotensin II: Reference Compound
Ki (Angiotensin): 0.2 nM

CCNC(=O)[C@H]1O[C@@H](n2cnc3c(N)ncnc32)[C@H](O)[C@@H]1O [NECA]
Ki (Adenosine): 120 nM

O=C(CCC1CCCCC1)N1CCC(c2c[nH]cn2)CC1 [Compound 6]
IC50 (histamine H3 receptor; [2]): 34 ± 1.4 nM

O=C(c1ccccc1)N1CCC(c2c[nH]cn2)CC1 [Compound 13]
IC50 (histamine H3 receptor; [2]): 151 ± 44 nM

VIP: Reference Compound
Ki (VIP): 1.53 nM

CN[C@H](CC(=O)O)C(=O)O [NMDA]
Ki (NMDA): 359 nM

N#CN=C(Nc1ccc(-c2c[nH]cn2)cc1)NC1CCCCC1 [Compound 50]
binding to the histamine H3 -receptor (in words) (histamine H3 receptor): ineffective at binding to the H3 -receptor

NCCc1c[nH]c2ccc(O)cc12 [Serotonin]
Ki (Serotonin 1): 4.6 nM
Ki (Serotonin 2): 531 nM

O=C1CN=C(c2ccccc2Cl)c2cc([N+](=O)[O-])ccc2N1 [Clonazepam]
Ki (Benzodiazephine): 3.4 nM

Tyr4-Bombesin
Ki (Bombesin): 0.55 nM

c1ccc(C2(N3CCCCC3)CCCCC2)cc1 [PCP]
Ki (PCP): 62.3 nM

CC(C)(C)OC(=O)N1CCC(c2c[nH]cn2)CC1 [Compound 2]
IC50 (histamine H3 receptor): 243.5 ± 1.9 nM

O=C(CCCc1ccccc1)N1CCC(c2c[nH]cn2)CC1 [Compound 5]
IC50 (histamine H3 receptor; [2]): 262 ± 9 nM

C[C@]12N[C@H](Cc3ccccc31)c1ccccc12 [MK801]
Ki (MK-801): 4.3 nM
